The record followed here is the OligoGym collection.

Oligonucleotides are given in HELM: sugar(base)linkage, 5' to 3'; d 2'-deoxyribose, r ribose, m 2'-O-methylribose, p phosphate. ss, as = sense and antisense strand
Note: test concentration or dose not given here.

The target in this series is Mmp7 (rat). The experiment in a line: reporter assay of Huesken 2005. The conditions noted are these: siRNA. A general note: In a reporter assay the amount or activity of a reporter protein is the signal.
With “RNA1{r(C)p.r(U)p.r(C)p.r(U)p.r(C)p.r(U)p.r(G)p.r(G)p.r(G)p.r(U)p.r(C)p.r(U)p.r(G)p.r(G)p.r(G)p.r(U)p.r(C)p.r(A)p.r(C)p.d(T)p.d(T)}|RNA2{r(G)p.r(U)p.r(G)p.r(A)p.r(C)p.r(C)p.r(C)p.r(A)p.r(G)p.r(A)p.r(C)p.r(C)p.r(C)p.r(A)p.r(G)p.r(A)p.r(G)p.r(A)p.r(G)p.d(T)p.d(G)}$$$RNA1{StrandType:ss}|RNA2{StrandType:as}$”, the normalised inhibition (eCFP-eYFP dual reporter) was 73.1%.
Under “RNA1{r(C)p.r(U)p.r(G)p.r(A)p.r(G)p.r(G)p.r(G)p.r(A)p.r(A)p.r(A)p.r(U)p.r(G)p.r(C)p.r(A)p.r(G)p.r(A)p.r(A)p.r(G)p.r(U)p.d(T)p.d(T)}|RNA2{r(A)p.r(C)p.r(U)p.r(U)p.r(C)p.r(U)p.r(G)p.r(C)p.r(A)p.r(U)p.r(U)p.r(U)p.r(C)p.r(C)p.r(C)p.r(U)p.r(C)p.r(A)p.r(G)p.d(T)p.d(T)}$$$RNA1{StrandType:ss}|RNA2{StrandType:as}$” stands 83.4%.
As for “RNA1{r(C)p.r(U)p.r(G)p.r(G)p.r(G)p.r(U)p.r(C)p.r(U)p.r(G)p.r(G)p.r(G)p.r(U)p.r(C)p.r(A)p.r(C)p.r(U)p.r(C)p.r(U)p.r(U)p.d(T)p.d(T)}|RNA2{r(A)p.r(A)p.r(G)p.r(A)p.r(G)p.r(U)p.r(G)p.r(A)p.r(C)p.r(C)p.r(C)p.r(A)p.r(G)p.r(A)p.r(C)p.r(C)p.r(C)p.r(A)p.r(G)p.d(A)p.d(G)}$$$RNA1{StrandType:ss}|RNA2{StrandType:as}$”, the normalised inhibition (eCFP-eYFP dual reporter) came out at 87.6%.
In the case of “RNA1{r(C)p.r(U)p.r(U)p.r(C)p.r(C)p.r(C)p.r(A)p.r(U)p.r(U)p.r(U)p.r(G)p.r(A)p.r(U)p.r(G)p.r(G)p.r(G)p.r(C)p.r(C)p.r(A)p.d(T)p.d(T)}|RNA2{r(U)p.r(G)p.r(G)p.r(C)p.r(C)p.r(C)p.r(A)p.r(U)p.r(C)p.r(A)p.r(A)p.r(A)p.r(U)p.r(G)p.r(G)p.r(G)p.r(A)p.r(A)p.r(G)p.d(T)p.d(T)}$$$RNA1{StrandType:ss}|RNA2{StrandType:as}$”, the normalised inhibition (eCFP-eYFP dual reporter) amounted to 85%.
For the substance “RNA1{r(G)p.r(A)p.r(A)p.r(A)p.r(C)p.r(A)p.r(C)p.r(U)p.r(C)p.r(U)p.r(A)p.r(G)p.r(G)p.r(C)p.r(C)p.r(A)p.r(U)p.r(G)p.r(C)p.d(T)p.d(T)}|RNA2{r(G)p.r(C)p.r(A)p.r(U)p.r(G)p.r(G)p.r(C)p.r(C)p.r(U)p.r(A)p.r(G)p.r(A)p.r(G)p.r(U)p.r(G)p.r(U)p.r(U)p.r(U)p.r(C)p.d(C)p.d(T)}$$$RNA1{StrandType:ss}|RNA2{StrandType:as}$”, the normalised inhibition (eCFP-eYFP dual reporter) was determined as 53.7%.
On to “RNA1{r(G)p.r(A)p.r(A)p.r(C)p.r(U)p.r(U)p.r(C)p.r(C)p.r(U)p.r(G)p.r(U)p.r(U)p.r(U)p.r(G)p.r(U)p.r(U)p.r(G)p.r(C)p.r(C)p.d(T)p.d(T)}|RNA2{r(G)p.r(G)p.r(C)p.r(A)p.r(A)p.r(C)p.r(A)p.r(A)p.r(A)p.r(C)p.r(A)p.r(G)p.r(G)p.r(A)p.r(A)p.r(G)p.r(U)p.r(U)p.r(C)p.d(A)p.d(C)}$$$RNA1{StrandType:ss}|RNA2{StrandType:as}$”, for which the normalised inhibition (eCFP-eYFP dual reporter) came out at 53.6%.
With “RNA1{r(G)p.r(A)p.r(A)p.r(G)p.r(C)p.r(C)p.r(C)p.r(A)p.r(G)p.r(G)p.r(U)p.r(G)p.r(U)p.r(G)p.r(G)p.r(A)p.r(G)p.r(U)p.r(G)p.d(T)p.d(T)}|RNA2{r(C)p.r(A)p.r(C)p.r(U)p.r(C)p.r(C)p.r(A)p.r(C)p.r(A)p.r(C)p.r(C)p.r(U)p.r(G)p.r(G)p.r(G)p.r(C)p.r(U)p.r(U)p.r(C)p.d(T)p.d(G)}$$$RNA1{StrandType:ss}|RNA2{StrandType:as}$”, the normalised inhibition (eCFP-eYFP dual reporter) worked out at 94%.
In the case of “RNA1{r(G)p.r(A)p.r(A)p.r(G)p.r(U)p.r(G)p.r(A)p.r(C)p.r(C)p.r(G)p.r(C)p.r(A)p.r(C)p.r(U)p.r(U)p.r(C)p.r(A)p.r(G)p.r(U)p.d(T)p.d(T)}|RNA2{r(A)p.r(C)p.r(U)p.r(G)p.r(A)p.r(A)p.r(G)p.r(U)p.r(G)p.r(C)p.r(G)p.r(G)p.r(U)p.r(C)p.r(A)p.r(C)p.r(U)p.r(U)p.r(C)p.d(T)p.d(C)}$$$RNA1{StrandType:ss}|RNA2{StrandType:as}$”, the normalised inhibition (eCFP-eYFP dual reporter) was found to be 40.5%.
Turning to “RNA1{r(G)p.r(A)p.r(A)p.r(U)p.r(U)p.r(A)p.r(U)p.r(C)p.r(U)p.r(U)p.r(A)p.r(G)p.r(G)p.r(A)p.r(A)p.r(A)p.r(U)p.r(U)p.r(U)p.d(T)p.d(T)}|RNA2{r(A)p.r(A)p.r(A)p.r(U)p.r(U)p.r(U)p.r(C)p.r(C)p.r(U)p.r(A)p.r(A)p.r(G)p.r(A)p.r(U)p.r(A)p.r(A)p.r(U)p.r(U)p.r(C)p.d(T)p.d(G)}$$$RNA1{StrandType:ss}|RNA2{StrandType:as}$”, the normalised inhibition (eCFP-eYFP dual reporter) turned out to be 116%.
For the substance “RNA1{r(G)p.r(A)p.r(C)p.r(U)p.r(U)p.r(C)p.r(A)p.r(G)p.r(U)p.r(C)p.r(U)p.r(U)p.r(A)p.r(C)p.r(A)p.r(A)p.r(A)p.r(G)p.r(G)p.d(T)p.d(T)}|RNA2{r(C)p.r(C)p.r(U)p.r(U)p.r(U)p.r(G)p.r(U)p.r(A)p.r(A)p.r(G)p.r(A)p.r(C)p.r(U)p.r(G)p.r(A)p.r(A)p.r(G)p.r(U)p.r(C)p.d(T)p.d(T)}$$$RNA1{StrandType:ss}|RNA2{StrandType:as}$”, the normalised inhibition (eCFP-eYFP dual reporter) came out at 92.9%.
For the substance “RNA1{r(G)p.r(A)p.r(G)p.r(G)p.r(G)p.r(A)p.r(A)p.r(A)p.r(U)p.r(G)p.r(C)p.r(A)p.r(G)p.r(A)p.r(A)p.r(G)p.r(U)p.r(U)p.r(C)p.d(T)p.d(T)}|RNA2{r(G)p.r(A)p.r(A)p.r(C)p.r(U)p.r(U)p.r(C)p.r(U)p.r(G)p.r(C)p.r(A)p.r(U)p.r(U)p.r(U)p.r(C)p.r(C)p.r(C)p.r(U)p.r(C)p.d(A)p.d(G)}$$$RNA1{StrandType:ss}|RNA2{StrandType:as}$”, the normalised inhibition (eCFP-eYFP dual reporter) is 97.5%.
On to “RNA1{r(G)p.r(A)p.r(G)p.r(U)p.r(G)p.r(C)p.r(C)p.r(A)p.r(G)p.r(A)p.r(U)p.r(G)p.r(U)p.r(U)p.r(G)p.r(C)p.r(A)p.r(G)p.r(A)p.d(T)p.d(T)}|RNA2{r(U)p.r(C)p.r(U)p.r(G)p.r(C)p.r(A)p.r(A)p.r(C)p.r(A)p.r(U)p.r(C)p.r(U)p.r(G)p.r(G)p.r(C)p.r(A)p.r(C)p.r(U)p.r(C)p.d(C)p.d(A)}$$$RNA1{StrandType:ss}|RNA2{StrandType:as}$”, for which the normalised inhibition (eCFP-eYFP dual reporter) was 104%.
Under “RNA1{r(G)p.r(A)p.r(U)p.r(G)p.r(A)p.r(G)p.r(U)p.r(A)p.r(C)p.r(U)p.r(G)p.r(G)p.r(A)p.r(C)p.r(G)p.r(G)p.r(A)p.r(U)p.r(G)p.d(T)p.d(T)}|RNA2{r(C)p.r(A)p.r(U)p.r(C)p.r(C)p.r(G)p.r(U)p.r(C)p.r(C)p.r(A)p.r(G)p.r(U)p.r(A)p.r(C)p.r(U)p.r(C)p.r(A)p.r(U)p.r(C)p.d(C)p.d(T)}$$$RNA1{StrandType:ss}|RNA2{StrandType:as}$” stands 87.4%.
Under “RNA1{r(G)p.r(A)p.r(U)p.r(G)p.r(G)p.r(U)p.r(G)p.r(A)p.r(G)p.r(G)p.r(A)p.r(C)p.r(U)p.r(C)p.r(A)p.r(G)p.r(G)p.r(C)p.r(G)p.d(T)p.d(T)}|RNA2{r(C)p.r(G)p.r(C)p.r(C)p.r(U)p.r(G)p.r(A)p.r(G)p.r(U)p.r(C)p.r(C)p.r(U)p.r(C)p.r(A)p.r(C)p.r(C)p.r(A)p.r(U)p.r(C)p.d(C)p.d(G)}$$$RNA1{StrandType:ss}|RNA2{StrandType:as}$” stands 61.8%; under “RNA1{r(G)p.r(A)p.r(U)p.r(G)p.r(U)p.r(U)p.r(G)p.r(C)p.r(A)p.r(G)p.r(A)p.r(A)p.r(U)p.r(U)p.r(C)p.r(U)p.r(C)p.r(A)p.r(C)p.d(T)p.d(T)}|RNA2{r(G)p.r(U)p.r(G)p.r(A)p.r(G)p.r(A)p.r(A)p.r(U)p.r(U)p.r(C)p.r(U)p.r(G)p.r(C)p.r(A)p.r(A)p.r(C)p.r(A)p.r(U)p.r(C)p.d(T)p.d(G)}$$$RNA1{StrandType:ss}|RNA2{StrandType:as}$”, 119%.
For the substance “RNA1{r(G)p.r(C)p.r(A)p.r(A)p.r(G)p.r(G)p.r(G)p.r(G)p.r(A)p.r(G)p.r(A)p.r(U)p.r(C)p.r(A)p.r(C)p.r(G)p.r(G)p.r(A)p.r(G)p.d(T)p.d(T)}|RNA2{r(C)p.r(U)p.r(C)p.r(C)p.r(G)p.r(U)p.r(G)p.r(A)p.r(U)p.r(C)p.r(U)p.r(C)p.r(C)p.r(C)p.r(C)p.r(U)p.r(U)p.r(G)p.r(C)p.d(G)p.d(A)}$$$RNA1{StrandType:ss}|RNA2{StrandType:as}$”, the normalised inhibition (eCFP-eYFP dual reporter) is 90.5%.
For the substance “RNA1{r(G)p.r(C)p.r(A)p.r(G)p.r(A)p.r(A)p.r(U)p.r(U)p.r(A)p.r(U)p.r(C)p.r(U)p.r(U)p.r(A)p.r(G)p.r(G)p.r(A)p.r(A)p.r(A)p.d(T)p.d(T)}|RNA2{r(U)p.r(U)p.r(U)p.r(C)p.r(C)p.r(U)p.r(A)p.r(A)p.r(G)p.r(A)p.r(U)p.r(A)p.r(A)p.r(U)p.r(U)p.r(C)p.r(U)p.r(G)p.r(C)p.d(G)p.d(C)}$$$RNA1{StrandType:ss}|RNA2{StrandType:as}$”, the normalised inhibition (eCFP-eYFP dual reporter) is 132%.
In the case of “RNA1{r(G)p.r(C)p.r(A)p.r(G)p.r(A)p.r(A)p.r(U)p.r(U)p.r(C)p.r(U)p.r(C)p.r(A)p.r(C)p.r(U)p.r(A)p.r(A)p.r(U)p.r(G)p.r(C)p.d(T)p.d(T)}|RNA2{r(G)p.r(C)p.r(A)p.r(U)p.r(U)p.r(A)p.r(G)p.r(U)p.r(G)p.r(A)p.r(G)p.r(A)p.r(A)p.r(U)p.r(U)p.r(C)p.r(U)p.r(G)p.r(C)p.d(A)p.d(A)}$$$RNA1{StrandType:ss}|RNA2{StrandType:as}$”, the normalised inhibition (eCFP-eYFP dual reporter) amounted to 94.3%.
On to “RNA1{r(G)p.r(C)p.r(A)p.r(G)p.r(A)p.r(C)p.r(A)p.r(U)p.r(C)p.r(A)p.r(U)p.r(A)p.r(A)p.r(U)p.r(U)p.r(G)p.r(G)p.r(C)p.r(U)p.d(T)p.d(T)}|RNA2{r(A)p.r(G)p.r(C)p.r(C)p.r(A)p.r(A)p.r(U)p.r(U)p.r(A)p.r(U)p.r(G)p.r(A)p.r(U)p.r(G)p.r(U)p.r(C)p.r(U)p.r(G)p.r(C)p.d(A)p.d(G)}$$$RNA1{StrandType:ss}|RNA2{StrandType:as}$”, for which the normalised inhibition (eCFP-eYFP dual reporter) came out at 95.9%.
For the substance “RNA1{r(G)p.r(C)p.r(A)p.r(G)p.r(U)p.r(G)p.r(G)p.r(A)p.r(C)p.r(A)p.r(A)p.r(A)p.r(C)p.r(U)p.r(G)p.r(A)p.r(G)p.r(G)p.r(G)p.d(T)p.d(T)}|RNA2{r(C)p.r(C)p.r(C)p.r(U)p.r(C)p.r(A)p.r(G)p.r(U)p.r(U)p.r(U)p.r(G)p.r(U)p.r(C)p.r(C)p.r(A)p.r(C)p.r(U)p.r(G)p.r(C)p.d(A)p.d(C)}$$$RNA1{StrandType:ss}|RNA2{StrandType:as}$”, the normalised inhibition (eCFP-eYFP dual reporter) turned out to be 32.3%.
